From ChEMBL document CHEMBL5042509, “Benzophenone Glucosides and B-Type Proanthocyanidin Dimers from Zambian Cassia abbreviata and Their Trypanocidal Activities” (J Nat Prod, 2022)
Values after ≈ are worked out from the molar mass of the structure shown.

Assays:
[1] = tested on: Trypanosoma brucei gambiense; test: Trypanocidal activity against Trypanosoma brucei gambiense IL1922 assessed as parasite growth inhibition at 50 ug/ml incubated for 3 days by Celltiter-Glo luminescence assay; format: functional; set-up: scale not given: the % may be the effect or the level left; settings: dose 50 µg/ml; time 3 day
[2] = tested on: Trypanosoma brucei rhodesiense; test: Trypanocidal activity against Trypanosoma brucei rhodesiense assessed as parasite growth inhibition at 50 ug/ml incubated for 3 days by Celltiter-Glo luminescence assay; format: functional; set-up: scale not given: the % may be the effect or the level left; settings: dose 50 µg/ml; time 3 day
Trypanosoma evansi [3] = test: Trypanocidal activity against Trypanosoma evansi assessed as parasite growth inhibition at 50 ug/ml incubated for 3 days by Celltiter-Glo luminescence assay; format: functional; set-up: scale not given: the % may be the effect or the level left; settings: dose 50 µg/ml; time 3 day
Trypanosoma congolense [4] = test: Trypanocidal activity against Trypanosoma congolense IL3000 assessed as parasite growth inhibition at 50 ug/ml incubated for 3 days by Celltiter-Glo luminescence assay; set-up: scale not given: the % may be the effect or the level left; settings: dose 50 µg/ml; time 3 day
[5] = tested on: Trypanosoma brucei rhodesiense; test: Trypanocidal activity against Trypanosoma brucei rhodesiense IL1501 assessed as parasite growth inhibition at 50 ug/ml incubated for 3 days by Celltiter-Glo luminescence assay; format: functional; set-up: scale not given: the % may be the effect or the level left; settings: dose 50 µg/ml; time 3 day
[6] = tested on: Trypanosoma brucei brucei; test: Trypanocidal activity against Trypanosoma brucei brucei GUTat3.1 assessed as parasite growth inhibition at 50 ug/ml incubated for 3 days by Celltiter-Glo luminescence assay; format: functional; set-up: scale not given: the % may be the effect or the level left; settings: dose 50 µg/ml; time 3 day
[7] = tested on: Trypanosoma brucei rhodesiense; test: Trypanocidal activity against Trypanosoma brucei rhodesiense assessed as parasite growth inhibition incubated for 3 days by Celltiter-Glo luminescence assay; format: functional, organism-based; settings: 72 h
Trypanosoma congolense [8] = test: Trypanocidal activity against Trypanosoma congolense IL3000 assessed as parasite growth inhibition incubated for 3 days by Celltiter-Glo luminescence assay; settings: IL3000, 72 h
Trypanosoma evansi [9] = test: Trypanocidal activity against Trypanosoma evansi assessed as parasite growth inhibition incubated for 3 days by Celltiter-Glo luminescence assay; format: functional, organism-based; settings: 72 h
[10] = tested on: Trypanosoma brucei rhodesiense; test: Trypanocidal activity against Trypanosoma brucei rhodesiense IL1501 assessed as parasite growth inhibition incubated for 3 days by Celltiter-Glo luminescence assay; format: functional, organism-based; settings: IL1501, 72 h
[11] = tested on: Trypanosoma brucei brucei; test: Trypanocidal activity against Trypanosoma brucei brucei GUTat3.1 assessed as parasite growth inhibition incubated for 3 days by Celltiter-Glo luminescence assay; format: functional, organism-based; settings: GUTat3.1, 72 h
[12] = tested on: Trypanosoma brucei gambiense; test: Trypanocidal activity against Trypanosoma brucei gambiense IL1922 assessed as parasite growth inhibition incubated for 3 days by Celltiter-Glo luminescence assay; format: functional, organism-based; settings: IL1922, 72 h

| SMILES | Activity [1] [%] | Activity [2] [%] | Activity (Trypanosoma evansi [3]) [%] | Activity (Trypanosoma congolense [4]) [%] | Activity [5] [%] | Activity [6] [%] | IC50 [7] [µg/mL] | IC50 (Trypanosoma congolense [8]) [µg/mL] | IC50 (Trypanosoma evansi [9]) [µg/mL] | IC50 [10] [µg/mL] | IC50 [11] [µg/mL] | IC50 [12] [µg/mL] |
| --- | --- | --- | --- | --- | --- | --- | --- | --- | --- | --- | --- | --- |
| COc1cc(O[C@@H]2O[C@H](CO)[C@@H](O)[C@H](O)[C@H]2O[C@@H]2O[C@@H](C)[C@H](OC(C)=O)[C@@H](OC(C)=O)[C@H]2OC(C)=O)cc(OC)c1OC | 38.79 | 89.65 | 0 | 91.43 | 27.17 | 44.45 | 33.3 (≈ 53.8 µM) | 40.9 (≈ 66.1 µM) |  |  |  |  |
| CC1CS(=O)(=O)CCN1/N=C/c1ccc([N+](=O)[O-])o1 (centres undefined) [NIFURTIMOX] |  |  |  |  |  |  | 0.42 (≈ 1.46 µM) | 0.3 (≈ 1.04 µM) |  |  |  |  |
| Cc1cc(O)c(C(=O)c2c(O)cccc2O[C@@H]2O[C@H](CO)[C@@H](O)[C@H](O)[C@H]2O)c(C(=O)O)c1 | 5.44 | 34.99 | 0 | 20.76 | 2.22 | 15.74 |  |  |  |  |  |  |
| COc1ccc(O[C@@H]2O[C@H](CO)[C@@H](O)[C@H](O)[C@H]2O[C@@H]2OC[C@](O)(CO)[C@H]2O)cc1OC | 0 | 2.69 | 0.6 | 0 | 0 | 0 |  |  |  |  |  |  |
| COc1cc(O)cc(OC)c1OC [ANTIAROL] | 43.51 | 94.68 | 0 | 1.68 | 20.12 | 32.18 | 24.9 (≈ 135 µM) |  |  |  |  |  |
| Oc1ccc2c(c1)O[C@H](c1ccc(O)c(O)c1)[C@@H](O)[C@H]2c1c(O)cc(O)c2c1O[C@H](c1cc(O)c(O)c(O)c1)[C@H](O)C2 | 73.09 | 100.02 | 100.12 | 99.96 | 42.7 | 26.31 | 6.79 (≈ 11.7 µM) | 9.26 (≈ 16 µM) | 6.52 (≈ 11.3 µM) |  |  |  |
| COc1cc(C(=O)O)cc(OC)c1O[C@@H]1O[C@H](CO)[C@@H](O)[C@H](O)[C@H]1O | 14.44 | 53.1 | 0 | 0 | 20.63 | 9.64 |  |  |  |  |  |  |
| Oc1cc(O)c2c(c1)O[C@H](c1cc(O)c(O)c(O)c1)[C@H](O)C2 [EPIGALLOCATECHIN] | 85.1 | 100.06 | 99.99 | 99.94 | 66.56 | 62.43 | 1.62 (≈ 5.29 µM) | 2.38 (≈ 7.77 µM) | 1.58 (≈ 5.16 µM) |  |  |  |
| Oc1ccc([C@H]2Oc3cc(O)ccc3[C@@H](c3c(O)cc(O)c4c3O[C@H](c3cc(O)c(O)c(O)c3)[C@H](O)C4)[C@@H]2O)cc1 | 57.94 | 90.97 | 69.94 | 69.89 | 57.75 | 48.67 | 4.13 (≈ 7.34 µM) | 5.32 (≈ 9.46 µM) | 3.32 (≈ 5.9 µM) |  |  |  |
| Cc1ccc(C(=O)Nc2ccc(S(=O)(=O)O)c3cc(S(=O)(=O)O)cc(S(=O)(=O)O)c23)cc1NC(=O)c1cccc(NC(=O)Nc2cccc(C(=O)Nc3cc(C(=O)Nc4ccc(S(=O)(=O)O)c5cc(S(=O)(=O)O)cc(S(=O)(=O)O)c45)ccc3C)c2)c1 [SURAMIN] |  |  |  |  |  |  | 0.094 (≈ 0.0725 µM) | 10.2 (≈ 7.9 µM) | 0.54 (≈ 0.416 µM) | 0.11 (≈ 0.0848 µM) | 0.094 (≈ 0.0725 µM) | 0.092 (≈ 0.0709 µM) |
| Oc1cc(O)c2c(c1)O[C@H](c1ccc(O)c(O)c1)[C@H](O)C2 [(-)-EPICATECHIN] | 11.49 | 74.01 | 54.44 | 13.33 | 8.81 | 29.77 |  |  |  |  |  |  |
| N=C(N)c1ccc(/N=N/Nc2ccc(C(=N)N)cc2)cc1 [DIMINAZENE] |  |  |  |  |  |  | 0.081 (≈ 0.288 µM) | 0.065 (≈ 0.231 µM) | 0.0033 (≈ 0.0117 µM) | 0.013 (≈ 0.0462 µM) | 0.02 (≈ 0.0711 µM) | 0.0066 (≈ 0.0235 µM) |
| Oc1ccc([C@H]2Oc3cc(O)ccc3[C@H](c3c(O)cc(O)c4c3O[C@H](c3ccc(O)c(O)c3)[C@H](O)C4)[C@@H]2O)cc1 | 10.01 | 59.53 | 0 | 35.26 | 1.57 | 13.03 |  |  |  |  |  |  |
| Oc1ccc([C@H]2Oc3cc(O)ccc3[C@@H](c3c(O)cc(O)c4c3O[C@H](c3ccc(O)c(O)c3)[C@@H](O)C4)[C@@H]2O)cc1 | 6.42 | 88.52 | 0 | 20.82 | 6.96 | 20.95 |  |  |  |  |  |  |
| COc1cc(O[C@@H]2O[C@H](CO)[C@@H](O)[C@H](O)[C@H]2O[C@@H]2O[C@@H](C)[C@H](O)[C@@H](O)[C@H]2O)cc(OC)c1OC | 0.1 | 5.42 | 0 | 0 | 2.26 | 0.72 |  |  |  |  |  |  |
| Oc1ccc([C@H]2Oc3c(c(O)cc(O)c3[C@@H]3c4ccc(O)cc4O[C@H](c4ccc(O)c(O)c4)[C@H]3O)C[C@H]2O)cc1 | 10.09 | 90.49 | 0 | 33.1 | 9.66 | 16.43 |  |  |  |  |  |  |
| Oc1ccc2c(c1)O[C@H](c1ccc(O)c(O)c1)[C@@H](O)[C@@H]2c1c(O)cc(O)c2c1O[C@H](c1ccc(O)c(O)c1)[C@@H](O)C2 | 4.59 | 99.6 | 32.9 | 36.23 | 2.52 | 20.31 |  |  |  |  |  |  |
| Cc1cc(O[C@@H]2O[C@H](CO)[C@@H](O)[C@H](O)[C@H]2O)c(C(=O)c2c(O)cccc2O)c(C(=O)O)c1 | 7.09 | 85.05 | 29.06 |  | 3.46 | 18.9 |  |  |  |  |  |  |
| NCCC[C@](N)(C(=O)O)C(F)F [EFLORNITHINE, (S)-] |  |  |  |  |  |  | 6.5 (≈ 35.7 µM) | 2.94 (≈ 16.1 µM) | 10.4 (≈ 57.2 µM) | 8.38 (≈ 46 µM) | 7.03 (≈ 38.6 µM) | 6.68 (≈ 36.7 µM) |
| Oc1ccc2c(c1)O[C@H](c1cc(O)c(O)c(O)c1)[C@@H](O)[C@H]2c1c(O)cc(O)c2c1O[C@H](c1ccc(O)c(O)c1)[C@H](O)C2 | 83.48 | 100.09 | 100.24 | 100.13 | 60.48 | 44.09 | 5.42 (≈ 9.37 µM) | 7.15 (≈ 12.4 µM) | 5.51 (≈ 9.52 µM) |  |  |  |
| Oc1ccc([C@H]2Oc3cc(O)ccc3[C@@H](c3c(O)cc(O)c4c3O[C@H](c3cc(O)c(O)c(O)c3)[C@@H](O)C4)[C@@H]2O)cc1 | 26.67 | 99.92 | 99.77 | 99.74 | 20.49 | 35.39 | 4.02 (≈ 7.15 µM) | 7.53 (≈ 13.4 µM) | 14.9 (≈ 26.5 µM) |  |  |  |
| N=C(N)c1ccc(OCCCCCOc2ccc(C(=N)N)cc2)cc1 [PENTAMIDINE] |  |  |  |  |  |  | 0.0017 (≈ 0.00499 µM) | 0.11 (≈ 0.323 µM) | 0.00033 (≈ 0.000969 µM) | 0.0099 (≈ 0.0291 µM) | 0.014 (≈ 0.0411 µM) | 0.0049 (≈ 0.0144 µM) |
| COc1cc(O[C@@H]2O[C@H](CO)[C@@H](O)[C@H](O)[C@H]2O[C@@H]2OC[C@](O)(CO)[C@H]2O)cc(OC)c1OC | 0 | 60.74 | 0 | 0 | 0.73 | 0 |  |  |  |  |  |  |
| COc1ccc(O[C@@H]2O[C@H](CO)[C@@H](O)[C@H](O)[C@H]2O)cc1OC | 0 | 8.9 | 0 | 0 | 0 | 0 |  |  |  |  |  |  |
| Oc1cc(O)c2c(c1)O[C@H](c1ccc(O)c(O)c1)[C@@H](O)C2 [CIANIDANOL] | 9.71 | 100.03 | 66.43 | 22.03 | 2.35 | 22.82 | 47.6 (≈ 164 µM) |  | 14.9 (≈ 51.3 µM) |  |  |  |
| Oc1ccc2c(c1)O[C@H](c1ccc(O)c(O)c1)[C@@H](O)[C@@H]2c1c(O)cc(O)c2c1O[C@H](c1cc(O)c(O)c(O)c1)[C@H](O)C2 | 14.68 | 99.93 | 57.8 | 72.01 | 24.11 | 10.18 | 10.9 (≈ 18.9 µM) | 13.1 (≈ 22.6 µM) | 12.2 (≈ 21.2 µM) |  |  |  |
| Oc1ccc2c(c1)O[C@H](c1ccc(O)c(O)c1)[C@@H](O)[C@H]2c1c(O)cc(O)c2c1O[C@H](c1ccc(O)c(O)c1)[C@H](O)C2 | 9.9 | 82.26 | 4.88 | 37.33 | 19.57 | 12.85 |  |  |  |  |  |  |
| Oc1ccc([C@H]2Oc3cc(O)ccc3[C@H](c3c(O)cc(O)c4c3O[C@H](c3cc(O)c(O)c(O)c3)[C@H](O)C4)[C@@H]2O)cc1 | 26.1 | 99.9 | 99.69 | 99.67 | 13.65 | 0 | 3.91 (≈ 6.95 µM) | 15.3 (≈ 27.3 µM) | 23.2 (≈ 41.2 µM) |  |  |  |
